Like-named read-outs stand apart in the source and are kept apart here.
Experiments:
MRC-5 cells = experiment: MRC-5SV2 cytotoxicity assay; assay type: cell-based; conditions: Homo sapiens, MRC5, 72 h; cytotoxicity, 3 days incubation; mean ± SD, n ≥ 2; read-out: pIC50 MRC-5 (converted)
Method: The synthesized analogues were tested against T. b. brucei, and inhibition of MRC-5 (human lung fibroblasts MRC-5SV40) cell proliferation was included as cytotoxicity control. […] Analogue 17 with an amino group instead of the carbonyl group was prepared to improve solubility for further modification. […] In vitro experiments were carried out with the bloodstream form of the T. b. brucei Squib strain (suramin-sensitive). […] All cultures and assays were conducted at 37 °C under an atmosphere of 5% CO2. […] Cell growth is compared to untreated-control wells (100% cell growth) and medium-control wells (0% cell growth). […] After 4 h at 37 °C, fluorescence is measured (λex 550 nm, λem 590 nm). The results are expressed as % reduction in cell growth/viability compared to control wells and an IC50 and an IC90 (50 and 90% inhibitory concentrations) are determined.

[1] = mouse, microsomes
T. b. brucei [2] = conditions: for survival: n = 3
Method: (§1) The antiparasitic assays were carried out exactly as described in Blaazer et al.([39]) Metabolic stability, pharmacokinetics, acute mouse infection model results were collected as described previously.[21] All animal experiments were conducted in compliance with institutional guidelines and following approval by the Ethical Committee of the University of Antwerp, Belgium [UA-ECD 2014–96]. Female Swiss mice (15–20 g), were purchased from Janvier (Le Genest Saint Isle, France). […] Animals were treated PO b.i.d. for 5 days at 25 and 50 mg/kg 31c. For the SL-RNA qPCR experiments blood was collected sublingually and subjected to erythrocyte lysis before extracting RNA with the QIAamp RNA Blood Mini kit (Qiagen). […] Small pieces of fat, brain, and spleen tissue were excised and immediately transferred to RNA later (Qiagen) and incubated overnight at 4 °C. RNA extraction was performed as instructed in the RNeasy Mini Plus Kit manual (Qiagen). The one-step SensiFAST SYBR Hi-Rox PCR kit (Bioline USA Inc., via Gentaur Belgium BVBA, Kampenhout, Belgium) was used for the PCR with the following forward and reverse primers, respectively 5′-[…]-3′ and 5′-[…]-3′. An initial activation step of 10 min at 45 °C and 10 min at 95 °C was used, followed by the amplification step for 40 cycles (15 s at 95 °C, 15 s 50 °C and 15 s at 60 °C). At last, the melting curves were generated with an increment of 0.3 °C (15 s at 95 °C 1 min at 45 °C and 15 s at 95 °C). The PCR was run on the Step One Plus real-time PCR system (Applied Biosystems, California, USA). An additional qPCR was performed with the mouse housekeeping gene Eef2 to confirm successful RNA extraction.
Mice were allocated to groups of three and were infected by IP injection of 10^4T. brucei Squib 427 trypomastigotes. […] Suramin was included as a reference for T. brucei and injected IP s.i.d. for 5 days at 10 mg/kg. A PEG400 vehicle control group was also included. […] The first treatment was given 30 min prior to the artificial infection. Drug efficacy was evaluated by microscopic determination of the parasitemia in a blood drop collected from the tail vein at several time points until 63 days postinfection (dpi). […] An SL-RNA qPCR assay was performed in all surviving animals to confirm parasitological cure. For the SL-RNA qPCR, peripheral blood was subjected to erythrocyte lysis before extracting RNA with the QIAamp RNA Blood Mini kit (Qiagen). […] Small pieces of fat, brain, and spleen tissues were excised and immediately transferred to RNA later (Qiagen) and incubated overnight at 4 °C. RNA extraction was performed as instructed in the RNeasy Mini Plus Kit manual (Qiagen). […]

Trypanosoma cruzi = experiment: Antiparasitic assay, T. cruzi; assay type: cell-based; conditions: mean ± SD, n ≥ 2, read-out: pIC50 T. cruzi (converted)
Method: (§2) First, they were tested in vitro against the protozoan species Trypanosoma cruzi and Leishmania infantum and the clinically relevant T. b. rhodesiense.
as §1, with “An initial activation step of 10 min at 45 °C and 10 min at 95 °C was used, followed by the amplification step for 40 cycles (15 s at 95 °C, 15 s 50 °C and 15 s at 60 °C). At last, the melting curves were generated with an increment of 0.3 °C (15 s at 95 °C 1 min at 45 °C and 15 s at 95 °C). The PCR was run on the Step One Plus real-time PCR system (Applied Biosystems, California, USA). An additional qPCR was performed with the mouse housekeeping gene Eef2 to confirm successful RNA extraction.” left out

[3] = test system: peritoneal mouse macrophages (PMM); experiment: Cytotoxicity on peritoneal mouse macrophages; assay type: cell-based; conditions: Macrophage, n ≥ 2
Leishmania infantum = experiment: Antiparasitic assay, L. infantum; assay type: cell-based; conditions: mean ± SD, n ≥ 2, read-out: pIC50 L. infantum (converted)
Method: as §2
as §1, with “An initial activation step of 10 min at 45 °C and 10 min at 95 °C was used, followed by the amplification step for 40 cycles (15 s at 95 °C, 15 s 50 °C and 15 s at 60 °C). At last, the melting curves were generated with an increment of 0.3 °C (15 s at 95 °C 1 min at 45 °C and 15 s at 95 °C). The PCR was run on the Step One Plus real-time PCR system (Applied Biosystems, California, USA). An additional qPCR was performed with the mouse housekeeping gene Eef2 to confirm successful RNA extraction.” left out

T. b. brucei [4] = experiment: Trypanosoma susceptibility assay (resazurin viability); assay type: cell-based; conditions: for IC50: Trypanosoma brucei
Method: as §1
In vitro experiments were carried out with the bloodstream form of the T. b. brucei Squib strain (suramin-sensitive). Parasites were routinely cultured in T25 culture flasks containing 10 mL of HMI-9 medium (Invitrogen) supplemented with 10% heat-inactivated fetal bovine serum (Life Technologies) and 2.5 μg/mL Geneticin (Life Technologies). MRC-5SV2 cells were cultured in MEM + Earl’s salts-medium, supplemented with 2 mM L-glutamine, 16.5 mM NaHCO3, and 5% inactivated fetal calf serum. All cultures and assays were conducted at 37 °C under an atmosphere of 5% CO2.
(§3) Parasites were counted in a KOVA counting chamber and diluted to 1.5 × 10^4 parasites/well of a 96-well plate (200 μL total volume), upon which the prediluted test compounds were added. Drug exposure covered a 72 h period without renewal of the culture medium. After 3 days of incubation, parasite growth was assessed fluorimetrically after addition of 50 μL of resazurin per well. After 6 h (T. b. rhodesiense) or 24 h (T. b. brucei) at 37 °C, fluorescence is measured (λex 550 nm, λem 590 nm). Parasite viability was assessed using the resazurin viability assay, and drug activity was calculated as percentage viability reduction compared to nontreated controls.

T. b. rhodesiense = experiment: as above; assay type: cell-based; conditions: Trypanosoma brucei, mean ± SD, n ≥ 2, read-out: pIC50 T. b. rhodesiense (converted)
Method: The antiparasitic assays were carried out exactly as described in Blaazer et al.([39]) Metabolic stability, pharmacokinetics, acute mouse infection model results were collected as described previously.[21] All animal experiments were conducted in compliance with institutional guidelines and following approval by the Ethical Committee of the University of Antwerp, Belgium [UA-ECD 2014–96]. Female Swiss mice (15–20 g), were purchased from Janvier (Le Genest Saint Isle, France). […] Animals were treated PO b.i.d. for 5 days at 25 and 50 mg/kg 31c. For the SL-RNA qPCR experiments blood was collected sublingually and subjected to erythrocyte lysis before extracting RNA with the QIAamp RNA Blood Mini kit (Qiagen). […]
as §3, with “Drug exposure covered a 72 h period without renewal of the culture medium.” left out

**Q.** Which IC50 (MRC-5 cells) does the source give for CC(C)(C)c1n[nH]c2c(=O)[nH]c(-c3ccc(F)cc3)nc12 [31c, 3-(tert-Butyl)-5-(4-fluorophenyl)-1,6-dihydro-7H-pyrazolo[4,3-d]pyrimidin-7-one] here?
**A.** > 63100 nM

**Q.** What about the “Phase-I metabolic stability (in words)” value [1] of the same compound?
**A.** improved metabolic stability compared with 2

**Q.** And the parent compound remaining ([1]; 1 h)?
**A.** at least 69%

**Q.** What about the survival (T. b. brucei [2]; 25 mg/kg b.i.d. PO for 5 days, one accidental death in this group) of the same compound?
**A.** survived throughout the 60 days postinfection follow-up period without relapse

**Q.** What about the survival (T. b. brucei [2]; 50 mg/kg b.i.d. PO for 5 days) of the same compound?
**A.** survived throughout the 60 days postinfection follow-up period without relapse

**Q.** And the “trypanosome Spliced Leader (SL) RNA by qPCR” value (T. b. brucei [2]; blood, spleen, fat and brain tissue of surviving animals)?
**A.** difficulty to detect trypanosome Spliced Leader (SL) RNA

**Q.** What about the IC50 (Trypanosoma cruzi) of the same compound?
**A.** > 63100 nM

**Q.** What about the IC50 [3] of the same compound?
**A.** > 63100 nM

**Q.** And the IC50 (Leishmania infantum)?
**A.** > 63100 nM

**Q.** What about the “improved potency compared to 2” value (T. b. brucei [4]; T. brucei, versus compound 2) of the same compound?
**A.** 4 fold

**Q.** And the IC50 (T. b. brucei [4]; 72 h, T. b. brucei Squib bloodstream form, 72 h exposure, mean ± SD, n ≥ 2, read-out: pIC50 T. brucei (converted))?
**A.** 15.8 nM

**Q.** And the IC50 (T. b. brucei [4]; read-out: IC50 against T. b. brucei)?
**A.** 17 nM

**Q.** What about the IC50 (T. b. rhodesiense) of the same compound?
**A.** 10 nM
